Laboratory results from US20090226956A1, “RUNX-MEDIATED ACTION OF NUCLEAR RECEPTORS AND UTILITIES THEREOF” (University of Southern California, priority 2008, published 2009).

Tests used:
Runx2 [1] = test: 6XOSE2-Luc Runx2 reporter luciferase assay, COS7 cells transfected with Runx2 and AR; type: cell-based, human
Description: As COS7 cells were transiently transfected in 96 well format with the Runx2 reporter 6XOSE2-Luc (firefly luciferase) along with expression vectors encoding human Runx2, AR, and GR as indicated. […] B. Parallel sets of COS7 cell cultures were transfected with either the AR reporter MMTV-Luc or the Runx2 reporter 6XOSE-Luc, along with 1 ng each of AR and Runx2 expression plasmids. […] Bar graphs represent luciferase assays, in which the reporters OSE2-Luc (left panel) and MMTV-Luc (right panel), were transfected with expression plasmids encoding wild type AR (WT) or a mutant AR lacking the AF1 domain (ΔAF1) as indicated.
We examined the effect of AR on the transcriptional potential of Runx2 using transient transfection reporter assays COS7 cells, which express neither transcription factor, were transfected with plasmids encoding Runx2 and AR, along with the 6XOSE2-Luc reporter, in which luciferase is controlled by six copies of the OSE2 Runx2 binding site (53).
Since AR is a potent transcription factor, we investigated if its transactivation function was required for repressing Runx2. […] MMTV-Luc and 6XOSE2-Luc were used as reporters for monitoring the transactivation and Runx2 repression functions of AR, respectively, with equal amounts of each of AR and Runx2 expression plasmids co-transfected in both assays.
Unless otherwise stated, these hormones were applied at a final concentration of 10 nM in 0.001% ethanol as the vehicle.
(§6) Transient transfection, luciferase, co-IP and ChIP—These assays were performed essentially as previously described (34, 51).

[2] = tested on: endogenous Runx2 in PC3-AR cells; conditions: DHT 24 hrs; not in PC3-GFP cells
Excerpt: B. PC3 cell that had been stably transduced with lentiviruses encoding AR or GFP were transiently transfected with the MMTV-Luc (left) or 6XOSE2-Luc (middle) reportersk, followed by luciferase assay, or, they were subjected to RT-qPCR analysis of the OC gene (right). […] Mean±SEM, n=4.
To study the influence of AR on Runx2 activity and on the Runx2 target gene OC in PCa cells, AR was first stably introduced into PC3 cells by retroviral infection. The transduced cells, designated PC3-AR, presumably resemble PCa cells that endogenously express both Runx2 and wild type AR. These cells were transiently transfected with the MMTV-Luc or the 6XOSE2-Luc reporter plasmid. PC3-GFP cells, transduced with a GFP-encoding retrovirus, were used as control.
Quantitative real time RT-PCR—Total RNA was isolated using Aurum Total RNA® kit (Bio-Rad, Hercules, Calif.) following the manufacturer's recommendations. One microgram of total RNA was reverse-transcribed using the Superscript III kit (Invitrogen) and the cDNA was subjected to real-time PCR amplification (RTqPCR) using iQ™ SYBR Green Supermix (Bio-Rad).

Runx1 = conditions: COS7, 6XOSE2-luc (FIG. 25)
Description: The ability of sex steroids and their receptors to repress Runx1 was determined by transient transfection assays of COS7 cells as described earlier for Runx2.
We tested the effects of ERαX, ERβ, AR and GR on Runx1 activity using the same assay employed for Runx2.

[3] = tested on: endogenous Runx proteins in PC3 cells; conditions: 6XOSE2-luciferase, 10 nM DHT
Excerpt: Interaction between AR and Runx proteins in PC3 cells that express endogenous Runx proteins. A. EMSA assessing Runx protein activity using an OSE2 ^32P-labeled probe. Whole cell extracts from PC3 cells were shifted and supershifted with Runx1 and Runx2 antibodies respectively and successfully competed with WT 10× and 100×OSE2 unlabeled probe. […] Confocal of endogenous Runx (fluorescein) proteins and AR (rhodamine) under transfected or untransfected AR conditions.

Runx2 in SaOS-2 cells = conditions: DHT 24 hrs
Description: Data are representative of at least three independent experiments.
as §6

[4] = tested on: Runx2 occupancy of the endogenous OSE2 site; conditions: Day-9 MC3T3-E1, DHT four hours, ChIP
Description: Occupancy was quantified by qPCR of an OC promoter fragment containing the OSE2 site or a fragment of the insulin promoter as control.
To test whether the DNA-binding exclusion model operates in vivo, we investigated whether AR interferes with binding of Runx2 to its chromatin-embedded OSE2 element at the OC promoter in MC3T3-E1 cells.
A slight modification was introduced for immunoprecipitation using MC3T3-E1 and PC3-AR cells. These cells were plated in a 150 mm dish in phenol-red free media supplemented with 5% CSS. The MC3T3-E1 cell culture medium was further supplemented, commencing at confluence, with 50 μg/ml ascorbic acid and 150 mM β-glycerophosphate.

Runx2 [5] = test: 6XOSE2-luc Runx2 reporter luciferase assay, COS7 cells transfected with Runx2 and ERα; type: cell-based, human
Excerpt: (§1) FIG. 1. ERα inhibits Runx2. (A,B) COS7 cells were transiently transfected with the Runx reporter 6XOSE2-luc (firefly) along with expression vectors encoding human Runx2 (A), Runx1 (B), ERα, and/or ERβ as indicated. […] In each experiment, the firefly luciferase results were corrected for the expression of a co-transfected CMV-renilla luciferase construct (internal control), except for Panel A, where the renilla luciferase values are shown in the inset graph. […] All data are presented as mean values±SEM, with n=4 dish replicates of a representative experiment, repeated at least 3 times.
(§2) FIG. 6. Various effects of SERM-bound ERα on Runx2. […] (B, C) COS7 cells were transfected with Runx2 and its 6XOSE2-luc reporter (B), or with ERE-luc (C) along with expression vectors coding for the indicated ER isoforms or fragments. […] All data are presented as mean values±SEM, with n=4 dish replicates of a representative experiment, repeated at least 3 times.
(§3) Cells were seeded at a density of 10,000 per well in 96-well plates and grown in 5% charcoal-stripped serum (CSS)-containing phenol red-free medium for 24 h. The indicated plasmids (50 ng reporter, 52 ng total) were transfected using ‘LTX and Plus reagent’ according to manufacture's specification (Invitrogen, Carlsbad, Calif.). Equimolar amounts of the empty vectors pcDNA 3.1 and pSG5 were used as controls, and the pCAT-basic promoter-less plasmid was used as ‘filler’ DNA. Under these conditions the total amounts of promoter equivalents (molar) and DNA mass (ng) were the same in all wells of a particular experiment. As an internal control, 0.01 ng of tk-Renilla-luc or CMV-renilla-luc (Promega, Madison, Wis.) was used for correction of transfection efficiency. Cells were subsequently treated with vehicle (EtOH, 0.01%) or the indicated ligands for 24 h. Luciferase activity was determined using the dual-assay luciferase kit (Promega, Madison, Wis.).
COS7 cells were transiently transfected with the indicated expression vectors along with a reporter for either Runx2 (6XOSE2-luciferase) or the classical transcriptional activation activity of ER (ERE-luciferase).

Runx2 [6] = conditions: same cells as Raloxifene; cited from earlier work
Runx2 in MCF7 cells = test: 6XOSE2-luc Runx2 reporter assay in MCF7 breast cancer cells; type: cell-based, human; conditions: 100 nM
Excerpt: as §2
(§4) COS7 cells were maintained in Dulbeco Modified Eagle Medium (DMEM) and 5% fetal bovine serum (FBS). The mouse osteoblastic cell line MC3T3-E1 was maintained in α-MEM and 10% FBS. Runx-reporter osteoblasts were generated by stable transfection of MC3T3-E1 cells with the 6XOSE2-luc reporter construct using the calcium phosphate coprecipitation method and hygromycin ([…]) as the selection drug. Resistance to hygromycin was conferred by cotransfection of the pCEP plasmid (1:15 molar ratio). To support development of the osteoblast phenotype, cells were treated with 50 μg/ml ascorbic acid and […] β-glycerophosphate commencing at confluence. The human breast cancer cell lines MDA-MB-231, T47D, and MCF7 were maintained in DMEM and 5% FBS.
(§5) Cells were seeded at a density of 10,000 per well in 96-well plates and grown in 5% charcoal-stripped serum (CSS)-containing phenol red-free medium for 24 h. […] Luciferase activity was determined using the dual-assay luciferase kit (Promega, Madison, Wis.).

ERα/Runx2 complexes = ERα/Runx2 complexes (Homo sapiens, UniProt P03372); conditions: COS7; E2 10 nM, OHT 100 nM, ICI 182780 100 nM; 24 h
ERα/Runx2 complexes, sequence (Q13950 1-507 isoform Q13950-2 partner, one chain of several): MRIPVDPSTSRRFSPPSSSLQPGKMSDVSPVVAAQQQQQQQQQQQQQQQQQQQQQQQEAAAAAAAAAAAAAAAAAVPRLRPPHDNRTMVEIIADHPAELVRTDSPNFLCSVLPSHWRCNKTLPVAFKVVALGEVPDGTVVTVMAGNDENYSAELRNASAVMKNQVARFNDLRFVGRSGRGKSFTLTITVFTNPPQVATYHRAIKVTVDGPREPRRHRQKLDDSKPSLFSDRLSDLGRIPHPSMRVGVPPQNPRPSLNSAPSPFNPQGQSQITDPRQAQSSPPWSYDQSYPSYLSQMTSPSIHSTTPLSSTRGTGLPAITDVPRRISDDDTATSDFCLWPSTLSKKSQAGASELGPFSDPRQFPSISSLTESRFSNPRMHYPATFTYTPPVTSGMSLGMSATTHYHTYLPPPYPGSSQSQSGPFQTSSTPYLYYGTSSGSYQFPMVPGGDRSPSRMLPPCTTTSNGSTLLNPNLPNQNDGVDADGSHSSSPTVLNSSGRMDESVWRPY
Description: Cells were seeded at a density of 300,000 per well in six-well plates and grown in 5% CSS-containing phenol red-free medium for 24 h. Cells were transfected when indicated, and 24 h later they were lysed in a 50 mM Tris-HCl buffer (pH 7.4) containing 150 mM NaCl, 1 mM EDTA, 1% Triton X-100, and fresh Protease Inhibitors Cocktail (1%; Sigma, St. Louis, Mo.). […] The remaining lysate was immunoprecipitated with approximately 3 μg of the specified antibody and 30 μl Protein-G beads (Amersham Biosciences Freiburg, Germany) and washed three times for 5 min each with the same buffer, followed by centrifugation at 4,000 rpm for 1 min. […] Input and immunoprecipitates were analyzed by Western blot analysis.

Runx2 in T47D cells = test: 6XOSE2-luc Runx2 reporter assay in T47D breast cancer cells; type: cell-based, human; conditions: 100 nM
Excerpt: as §2, §4, §5

[7] = tested on: Runx2 in MDA-MB-231 cells; test: 6XOSE2-luc Runx2 reporter assay in MDA-MB-231 breast cancer cells expressing ERα; type: cell-based, human; conditions: ERα expressed; E2 10 nM, OHT 100 nM, ICI 182780 100 nM
Excerpt: as §2, §4, §5

ERα = target: T1, ERα (Homo sapiens, UniProt P03372); test: ERE-luc ER reporter luciferase assay in COS7 cells; type: cell-based; conditions: 100 nM (FIG. 6C)
T1 sequence (P03372 1-595): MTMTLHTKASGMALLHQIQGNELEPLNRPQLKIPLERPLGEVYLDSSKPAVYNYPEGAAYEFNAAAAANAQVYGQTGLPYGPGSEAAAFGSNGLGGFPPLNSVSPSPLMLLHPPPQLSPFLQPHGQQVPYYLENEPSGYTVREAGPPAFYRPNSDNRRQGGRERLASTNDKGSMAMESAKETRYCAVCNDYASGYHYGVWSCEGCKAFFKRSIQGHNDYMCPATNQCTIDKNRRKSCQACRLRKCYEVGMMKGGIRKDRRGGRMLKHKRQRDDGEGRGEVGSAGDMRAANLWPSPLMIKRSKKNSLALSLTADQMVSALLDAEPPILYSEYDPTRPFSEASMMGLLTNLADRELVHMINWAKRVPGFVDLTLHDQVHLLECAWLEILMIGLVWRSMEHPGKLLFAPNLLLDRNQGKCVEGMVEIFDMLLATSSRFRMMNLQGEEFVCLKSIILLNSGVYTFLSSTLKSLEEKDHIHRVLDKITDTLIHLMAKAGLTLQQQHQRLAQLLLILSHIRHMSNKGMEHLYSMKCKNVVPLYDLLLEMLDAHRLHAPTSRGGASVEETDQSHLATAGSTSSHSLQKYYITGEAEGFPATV

Runx2 [8] = test: 6XOSE2-luc Runx2 reporter luciferase assay, COS7 cells transfected with Runx2 and ERβ; type: cell-based, human; conditions: COS7, 6XOSE2-luc, 10 nM, 24 h
Excerpt: as §1
as §3, with “As an internal control, 0.01 ng of tk-Renilla-luc or CMV-renilla-luc (Promega, Madison, Wis.) was used for correction of transfection efficiency. Cells were subsequently treated with vehicle (EtOH, 0.01%) or the indicated ligands for 24 h.” left out

AR DBD = AR DBD (Homo sapiens, UniProt P10275 P10275:540-647); test: EMSA; GST-AR-DBD alone forms no complex with OSE2; conditions: tags: GST fusion, E. coli BL21(DE3); label: 32P
AR DBD, sequence (P10275 540-647, one chain of several): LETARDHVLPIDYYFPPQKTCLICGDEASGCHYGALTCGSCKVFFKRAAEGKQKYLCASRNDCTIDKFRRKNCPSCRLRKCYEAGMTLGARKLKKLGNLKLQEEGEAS
Excerpt: Where indicated, the binding reaction also contained purified GST, GST-AR-DBD, GST-AR-DBD^A573D (see FIG. 14G), or anti-Runx2 specific antibodies, either native (n) or denaturated by boiling (b). […] Arrow indicates Runx2/OSE2 complex.
The source for Runx2 was MC3T3-E1 cell extract and recombinant GST-AR-DBD was purified from E. coli.

[9] = COS7, 6XOSE2-Luc, 10 nM, 24 hrs

Description for MC3T3-E1 cells: Staining with 4′,6-diamidino-2-phenylindole (DAPI) demarcates the cell nucleus.
A sub-line that had been stably transfected with the 6XOSE2-Luc reporter (51) was employed to simultaneously test the influence of AR on pure Runx2 activity (luciferase) and on OC gene expression.
Confocal immunofluorescence microscopy—Cells were grown on 18 mm^2 cover-slips in 6-well plates for 24 hrs in growth medium with CSS. […] Cells were mounted using Vectashield Hard Set mounting medium with DAPI (Burlingame, Calif.) and viewed using an LSM 510 Zeiss confocal microscope at 60× magnification. Images were processed using the software program Image J.

## CC(=O)O[C@]1(C(C)=O)CC[C@H]2[C@@H]3C[C@H](C)C4=CC(=O)CC[C@]4(C)[C@H]3CC[C@@]21C [MPA]
Runx2 [1]; COS7, 6XOSE2-luciferase, Runx2 and Runx1 (FIG. 21)
  Effect of MPA-stimulated AR on Runx activities: inhibited Runx activities

## C[C@]12CCC(=O)C[C@@H]1CC[C@@H]1[C@@H]2CC[C@]2(C)[C@@H](O)CC[C@@H]12 [DHT, dihydrotestosterone]
Runx2 [1]; [9]
  Effect on Runx2 activity in the absence of AR: did not affect
  Effect on Runx2 activity in the presence of AR: repressed Runx2 activity to basal levels
Runx2 [1]; COS7, 6XOSE2-Luc, DHT 10 nM
  Effect on Runx2 activity in the presence of GR: did not alter
[2]
  6XOSE2-Luc reporter activity in PC3-AR cells: strong repression
  OC expression (RT-qPCR) in PC3-AR cells: strongly inhibited
Runx1
  Effect of AR+DHT on Runx1 activity: robustly inhibited
[3]
  Endogenous Runx-mediated activity in PC3 cells with transfected AR: also inhibited
MC3T3-E1 cells; MC3T3-E1, DHT chronically since confluence or 24 hrs prior to harvest
  Expression of both 6XOSE2-Luc and OC on day 9: strongly inhibited
MC3T3-E1 cells; immunofluorescence, day 1 and day 9, DHT 24 hrs
  AR protein levels in early and late MC3T3-E1 cultures: strongly induced
Runx2 in SaOS-2 cells
  6XOSE2-Luc luciferase activity in SaOS-2 cells: inhibited luciferase activity
[4]
  Decrease of Runx2 occupancy of the endogenous OSE2 site: 2.4 fold

## O=C(c1ccc(OCCN2CCCCC2)cc1)c1c(-c2ccc(O)cc2)sc2cc(O)ccc12 [Raloxifene]
Runx2 [5]; 6XOSE2-luciferase, 100 nM Raloxifene, 24 hrs
  Effect on Runx2 activity in COS7 cells (Example V): small effect is stimulatory

## CC/C(=C(\c1ccccc1)c1ccc(OCCN(C)C)cc1)c1ccccc1 [Tamoxifene]
Runx2 [6]
  Effect on Runx2 activity in COS7 cells (Khalid et al., 2008, FIG. 6B): small inhibitory effect

## C[C@]12CC[C@@H]3c4ccc(O)cc4C[C@@H](CCCCCCCCC[S+]([O-])CCCC(F)(F)C(F)(F)F)[C@H]3[C@@H]1CC[C@@H]2O (stereo partly shown) [ICI 182780]
Runx2 in MCF7 cells
  Effect on Runx2 in MCF7 cells: slightly stimulated
ERα/Runx2 complexes
  ERα/Runx2 interaction in co-IP (formation of ERα/Runx2 complexes): strongly induced
Runx2 in T47D cells
  Effect on Runx2 in T47D cells: slightly stimulated
[7]
  Effect on 6XOSE2 Runx2 reporter in MDA-MB-231 cells: slight if any inhibitory effect
Runx2 [5]; COS7, 6XOSE2-luc, ERα, ICI 182780 100 nM, 24 h (FIG. 6B)
  Stimulation of Runx2 activity: 3.1 fold
ERα
  Partial agonist effect on an ERE-containing template: weak

## CC/C(=C(\c1ccc(O)cc1)c1ccc(OCCN(C)C)cc1)c1ccccc1 [OHT, hydroxytamoxifen]
Runx2 in MCF7 cells
  Effect on Runx2 in MCF7 cells: uniformly inhibitory
Runx2 in T47D cells
  Effect on Runx2 in T47D cells: uniformly inhibitory
[7]
  Effect on 6XOSE2 Runx2 reporter in MDA-MB-231 cells: as strongly as E2
Runx2 [5]; COS7, 6XOSE2-luc, ERαDBD-LBD fragment, 100 nM
  Effect on Runx2 when bound to the ERαDBD-LBD: stimulatory effect
Runx2 [5]; COS7, 6XOSE2-luc, full-length ERα, 100 nM, 24 h
  Effect on Runx2 activity: slightly inhibited

## C[C@]12CC[C@@H]3c4ccc(O)cc4CC[C@H]3[C@@H]1CC[C@@H]2O [E2, estradiol]
Runx2 [8]
  Effect on Runx2 activity in the presence of ERβ: did not inhibit
Runx2 [5]; COS7, 6XOSE2-luc, in the presence of ERα, E2 10 nM, 24 h (FIG. 1A)
  Inhibition of Runx2 activity: 76%

B1: OSE2 probe (dsDNA)
DNA 1: AGCTGCAATCACCAACCACAGCA
DNA 2: TGCTGTGGTTGGTGATTGCAGCT
AR DBD
  binding result: no binding
